Experiments:
[1] = tested on: Prm1-directed luciferase expression; assay: Effect of PMA, PD98059 or Vitamin D3 on Prm1-directed luciferase expression in HEL cells; type: cell-based, human
Description: HEL and EA.hy 926 cells were co-transfected with the various pGL3Basic-recombinant plasmids (2 mg), encoding firefly luciferase, along with pRL-TK (200 ng), encoding renilla luciferase, using DMRIE-C® transfection reagent. HEK293, WI-38, and 1° hAoSMCs were co-transfected with the pGL3Basic-recombinant plasmids (2 mg), along with pRL-TK (200 ng), using Effectene transfection reagent. In all cases, cells co-transfected with pRL-TK (200 ng) in the presence of either the pGL3Control vector (firefly luciferase gene under the control of the SV40 promoter; 2 mg) or the promoter-less pGL3Basic empty vector (2 mg), which served as positive and negative controls, respectively. […] Relative firefly to renilla luciferase activity (arbitrary units) was calculated as a ratio and was expressed in relative luciferase units (RLU). To investigate the effect of over-expression of exon 5 (+ or −) or KTS (+ or −) isoforms of WT1 on Prm1-directed gene expression, HEL cells were co-transfected with either pGL3b:Prm1 or pGL3b:Prm1D (1.5 μg) plus 200 ng of pRL-TK along with either pcDNA3:WT1 (+/+), pcDNA3:WT1 (+/−), pcDNA3:WT1 (−/+), pcDNA3:WT1 (−/−) (0.5 μg), or as a control, pcDNA3 (0.5 μg). […] The plasmid pCMV5-NAB1, containing the entire coding sequence for NAB1, was generously donated by Dr. Gerald Thiel, University of Saarland Medical Center, Homburg, Germany, and has been described previously (Thiel et al., 2000). To investigate the effect of over-expression of NAB1 on the PMA-mediated induction of Prm1-directed gene expression, HEL cells were transiently co-transfected with pGL3b:Prm1 (2 μg) plus pRL-TK (200 ng) along with either pCMV5 (control) or pCMV:NAB1 (1 μg).

[2] = tested on: Prm1; conditions: cited from earlier work
[3] = tested on: Prm3; conditions: cited from earlier work
[4] = tested on: Prm1-directed luciferase expression; assay: Effect of over-expression of WT1 isoforms, Egr1 or NAB1 on Prm1-directed luciferase expression in HEL cells; type: cell-based, human
Description: HEL and EA.hy 926 cells were co-transfected with the various pGL3Basic-recombinant plasmids (2 mg), encoding firefly luciferase, along with pRL-TK (200 ng), encoding renilla luciferase, using DMRIE-C® transfection reagent. HEK293, WI-38, and 1° hAoSMCs were co-transfected with the pGL3Basic-recombinant plasmids (2 mg), along with pRL-TK (200 ng), using Effectene transfection reagent. In all cases, cells co-transfected with pRL-TK (200 ng) in the presence of either the pGL3Control vector (firefly luciferase gene under the control of the SV40 promoter; 2 mg) or the promoter-less pGL3Basic empty vector (2 mg), which served as positive and negative controls, respectively. Firefly and renilla luciferase expression was assayed some 48 h post-transfection using the Dual-Luciferase Reporter Assay System™, as described (Coyle et al., 2005). Relative firefly to renilla luciferase activity (arbitrary units) was calculated as a ratio and was expressed in relative luciferase units (RLU). To investigate the effect of over-expression of exon 5 (+ or −) or KTS (+ or −) isoforms of WT1 on Prm1-directed gene expression, HEL cells were co-transfected with either pGL3b:Prm1 or pGL3b:Prm1D (1.5 μg) plus 200 ng of pRL-TK along with either pcDNA3:WT1 (+/+), pcDNA3:WT1 (+/−), pcDNA3:WT1 (−/+), pcDNA3:WT1 (−/−) (0.5 μg), or as a control, pcDNA3 (0.5 μg). […]

## C=C1/C(=C\C=C2/CCC[C@]3(C)[C@@H]([C@H](C)CCCC(C)(C)O)CC[C@@H]23)C[C@@H](O)C[C@@H]1O [Vitamin D3, 1α, 25-dihydroxy-vitamin D3]
[1]; 80 nM Vitamin D3, 24 h or 30 h
  Effect on luciferase expression directed by Prm1K: no significant effect on luciferase expression directed by Prm1K
[1]; 80 nM Vitamin D3, 30 h
  Increase in Prm1-directed luciferase expression: 1.6 fold

## CCCCC/C=C/C=C1/C(=O)C=C[C@@H]1C/C=C\CCCC(=O)O [15d-PGJ2, 15-deoxy-Δ12,14-prostaglandin J2]
[2]
  Effect on Prm1: had no effect on Prm1
[3]
  Effect on transcriptional activity of Prm3: suppressed the transcriptional activity of Prm3

B1: NAB1: Egr1 co-repressor NGFI-A-binding protein 1, over-expressed from pCMV5-NAB1 (protein)
chain: MAAALPRTLGELQLYRILQKANLLSYFDAFIQQGGDDVQQLCEAGEEEFLEIMALVGMASKPLHVRRLQKALRDWVTNPGLFNQPLTSLPVSSIPIYKLPEGSPTWLGISCSSYERSSNAREPHLKIPKCAATTCVQSLGQGKSDVVGSLALQSVGESRLWQGHHATESEHSLSPADLGSPASPKESSEALDAAAALSVAECVERMAPTLPKSDLNEVKELLKTNKKLAKMIGHIFEMNDDDPHKEEEIRKYSAIYGRFDSKRKDGKHLTLHELTVNEAAAQLCVKDNALLTRRDELFALARQISREVTYKYTYRTTKSKCGERDELSPKRIKVEDGFPDFQDSVQTLFQQARAKSEELAALSSQQPEKVMAKQMEFLCNQAGYERLQHAERRLSAGLYRQSSEEHSPNGLTSDNSDGQGERPLNLRMPNLQNRQPHHFVVDGELSRLYPSEAKSHSSESLGILKDYPHSAFTLEKKVIKTEPEDSR
[4]; HEL, PMA 100 nM 16 h
  Effect of NAB1 over-expression on PMA-induction of Prm1 activity: significantly reduced the PMA-induction of Prm1 activity
[4]; vehicle-treated HEL cells
  Effect of NAB1 over-expression on Prm1-directed luciferase activity: did not significantly affect Prm1-directed luciferase activity

Reference: patent US20110269825A1, “Modified Thromboxane A2 Receptor Promoter Sequence” (priority 2008, published 2011)
